The text below walks through data of patent EP0548931A1, “Material for controlling pests” (SUMITOMO CHEMICAL COMPANY, LIMITED, priority 1991, dated 1993).

What all share (format): in vivo, Bemisia tabaci
Experiment [1] relates to sweetpotato whitefly. Put plainly: Test Example 7: yellow Kent paper (Production Example 6) in net cage, hatching inhibition. The conditions noted are these: yellow Kent paper 15 cm x 15 cm, 5 g/m², cotton seed oil, tetradecane, Span 85; eggs laid on kidney bean. As for the experimental part:
Five parts of the insect growth regulator is dissolved in 65 parts of a vegetable oil, and then 20 parts of a mineral oil and 10 parts of a surface active agent are added thereto and mixed. 2.25 Grams of the resulting solution is absorbed in a square yellow Kent paper having a side of 15 cm to obtain a material for controlling pests containing 5 g/m² of the active ingredient. The material for controlling pests containing pyriproxyfen (insect growth regulator), a cotton seed oil (vegetable oil), tetradecane (mineral oil) and Span 85® (surface active agent produced by ICI Americas Inc.) prepared according to Production Example 6 was formed into a size of 15 cm x 15 cm. It was set on one wall surface of a nylon net cage of 30 cm x 30 cm x 30 cm in size. About 100 adults of sweetpotato whitefly were released in the cage together with kidney bean on which the adults had been parasitized. One day after release of the adults, a potted kidney bean having no adults parasitized thereon was set in the cage for oviposition. Among the eggs laid on the potted kidney bean until the next day, the number of unhatched eggs was counted.

Experiment [2] relates to sweetpotato whitefly. Put plainly: Test Example 4: yellow cloth with cotton seed oil solution in net cage, hatching inhibitory effect on eggs. The conditions noted are these: after 48 hours, kidney bean. As for the experimental part:
Materials for controlling pests containing pyriproxyfen in amounts of 5.3 mg/cm², 2.7 mg/cm² and 0.5 mg/cm², respectively, were prepared by dissolving the corresponding amounts of pyriproxyfen in a cotton seed oil and coating every solution thus obtained onto a yellow cloth of 15 cm x 15 cm in size to allow the cloth to absorb the solution. Every cloth was set on one wall surface of a nylon net cage (30 cm x 30 cm x 30 cm). Kidney bean planted in a pot was placed at the center of the cage, and sweetpotato whitefly adults were released in the cage. After 48 hours, the hatching inhibitory effect on eggs from the adults was examined.

In experiment [3] the test system is sweetpotato whitefly. Put plainly: Test Example 8: yellow Kent paper (Production Example 7) in net cage, hatching inhibition. The conditions noted are these: yellow Kent paper 15 cm x 15 cm, 0.01 g/m², cotton seed oil; eggs laid on kidney bean. As for the experimental part:
0.01 Part of the insect growth regulator is dissolved in 99.99 parts of a vegetable oil. The resulting solution is applied to a roll of yellow Kent paper of 50 cm in width and 2,000 m in length by gravure printing to obtain material for controlling pests containing 0.01 g/m² of the active ingredient. A material for controlling pests containing pyriproxyfen (insect growth regulator) and a cotton seed oil (vegetable oil) prepared according to Production Example 7 was formed into a size of 15 cm x 15 cm. It was set on one wall surface of a nylon net cage of 30 cm x 30 cm x 30 cm in size. About 100 adults of sweetpotato whitefly were released in the cage together with kidney bean on which the adults had been parasitized. One day after release of the adults, a potted kidney bean having no adults parasitized thereon was set in the cage for oviposition. Among the eggs laid on the potted kidney bean until the next day, the number of unhatched eggs was counted.

For the next experiment, the system named is sweetpotato whiteflies. Briefly: Test Example 2: yellow cloth material (Production Example 2), pest-controlling effect, count of adults. Particulars: 0.16 mg/cm². On the procedure:
0.4 Part of the insect growth regulator is dissolved in 40 parts of acetone and further 0.8 part of rape seed oil is added thereto. Thirty-one milliliters of the resulting solution is absorbed in a yellow cloth of 21 cm x 92 cm in size. Acetone is then vaporized to obtain a material for controlling pests containing 0.16 mg/cm² of the active ingredient. A material for controlling pests with pyriproxyfen as insect growth regulator was prepared according to Production Example 2. It was set at the same height as that of a container (80 cm x 112 cm x 45 cm) in which tomato having greenhouse whiteflies parasitized thereon had been planted. On the other hand, a yellow cloth containing no insect growth regulator was set as a control at a distance of about 8 m. On the predetermined day, the number of greenhouse whitefly adults parasitized on the tomato was counted. Table 1 In the same manner as in Test Example 1, the pest-controlling effect on sweetpotato whiteflies was examined.

Experiment [4] relates to sweetpotato whitefly. Put plainly: Test Example 5: gravure-printed yellow Kent paper (Production Example 4) in net room with cabbages, count of larvae. Particulars: after 1 month; larvae parasitized on five randomly selected cabbages; yellow Kent paper 10 cm x 2 m, 5 g/m²; 800 adults released. On the procedure: Five parts of the insect growth regulator is dissolved in 65 parts of a vegetable oil, and then 20 parts of a mineral oil and 10 parts of a surface active agent are added thereto and mixed. The resulting solution is applied to a roll of yellow Kent paper of 50 cm in width and 2,000 m in length by gravure printing to obtain a material for controlling pests containing 5 g/m² of the active ingredient. […] A material for controlling pests prepared according to Production Example 4 with pyriproxyfen (insect growth regulator), a cotton seed oil (vegetable oil), tetradecane (mineral oil) and Span 85® (surface active agent produced by ICI Americas Inc.) was formed into a size of 10 cm x 2 m. It was set at a height of 30 cm above the floor surface between the rows of cabbages. Eight hundred adults of sweetpotato whitefly were released in the net room. After 1 month, the number of larvae parasitized on five randomly selected cabbages was counted.

For experiment [5], the system named is sweetpotato whitefly. Put plainly: Test Example 9: yellow Kent paper (Production Example 8) in net cage, hatching inhibition. The conditions noted are these: yellow Kent paper 15 cm x 15 cm, 1 g/m², Solvesso 200; eggs laid on kidney bean. As for the experimental part:
Ten parts of the insect growth regulator is dissolved in 90 parts of a mineral oil. 0.225 Gram of the resulting solution is absorbed in a square yellow Kent paper having a side of 15 cm to obtain a material for controlling pests containing 1 g/m² of the active ingredient. A material for controlling pests containing pyriproxyfen (insect growth regulator) and Solvesso 200 (mineral oil) prepared according to Production Example 8 was formed into a size of 15 cm x 15 cm. It was set on one wall surface of a nylon net cage of 30 cm x 30 cm x 30 cm in size. About 100 adults of sweetpotato whitefly were released in the cage together with kidney bean on which the adults had been parasitized. One day after release of the adults, a potted kidney bean having no adults parasitized thereon was set in the cage for oviposition. Among the eggs laid on the potted kidney bean until the next day, the number of untached eggs was counted.

On to `CC(COc1ccc(Oc2ccccc2)cc1)Oc1ccccn1` (stereo not shown) [pyriproxyfen, 4-phenoxyphenyl 2-(2-pyridyloxy)propyl ether], for which the “Hatching inhibitory rate (%)” value in the experiment on sweetpotato whitefly [1] is on record as 90.6%; in the experiment with sweetpotato whitefly [2] (Pyriproxyfen 0.5 mg/cm² on yellow cloth), 83.7%; in the experiment on sweetpotato whitefly [2] (Pyriproxyfen 2.7 mg/cm² on yellow cloth), 98.2%; with sweetpotato whitefly [2] (Pyriproxyfen 5.3 mg/cm² on yellow cloth) it was 94.6%; in the experiment on sweetpotato whitefly [3] it was 100%; in the experiment with sweetpotato whitefly [5], 98.2%. Further, the “number of sweetpotato whitefly adults (pest-controlling effect)” value in the experiment with sweetpotato whiteflies (0 days elapsed after setting) came to 53; in the experiment with sweetpotato whiteflies (7 days elapsed after setting), 40; with sweetpotato whiteflies (14 days elapsed after setting), 35; with sweetpotato whiteflies (18 days elapsed after setting) it was 20; with sweetpotato whiteflies (29 days elapsed after setting) it was 10; with sweetpotato whiteflies (35 days elapsed after setting), 1. Also, in the experiment on sweetpotato whitefly [4], the Number of larvae is given as 192.
